Target: T1, tubulin
T1 construct: purified tubulin (alpha/beta heterodimer)
Experiment: tryptophan fluorescence quenching titration; competition with BODIPY FL-vinblastine (Ki […])
Assay type: binding

- Kd: 8.3 ± 1.8 µM
Compound: O=C1NC(=S)S/C1=C\c1ccc(-c2ccc(Br)c(Cl)c2)o1 [BCFMT, (Z)-5-((5-(4-bromo-3-chlorophenyl)furan-2-yl)methylene)-2-thioxothiazolidin-4-one]

Reference: article PMC3432122, “An Antitubulin Agent BCFMT Inhibits Proliferation of Cancer Cells and Induces Cell Death by Inhibiting Microtubule Dynamics” (PLoS ONE, 2012)
